Experimental findings from patent US20230365608A1 (priority 2019, published 2023) are described below.

The subject of experiment [1] is Influenza strains A/WSN/33 (H1N1). Kind of experiment: Influenza A/WSN/33 (H1N1) antiviral assay in A549 cells (MUNANA neuraminidase readout). The settings on record: Influenza A virus, compound 24 h before infection, 250 IU/well, 20 h infection. In kind it is cell-based, Influenza A virus (H1N1); human lung carcinoma A549 cells. The method, then:
(§1) EC50 [uM] as Measured Using Two Cell Lines: WSN/33 (H1N1) A549 and MDCK
1. Human lung carcinoma A549 cells (ATCC, Manassas, VA) were plated at a density of 5×10^4 cells/ml (5×10^3 cells/well) in maintenance media (Ham's F12 media supplemented with 10% FBS, 1% penicillin/streptomycin, 1% HEPES, 1% Glutamine and 1% non-essential amino acids (all Mediatech, Manassas, VA) in 96-well plates. After 24 hours, serially diluted compounds in assay media (Ham's F12 supplemented with 0.3FBS, 1% penicillin/streptomycin, 1% HEPES, 1% Glutamine and 1% non-essential amino acids) were added to cells and incubated for an additional 24 hours. Cells were infected with 250 IU/well of Influenza strains A/WSN/33 (H1N1) (Virapur, San Diego CA) and incubated for 20 h at 37° C., 5% CO2. The cell culture supernatant was aspirated off and 50 μl 25 μM 2′-(4-Methylumbelliferyl)-a-D-N-acetylneuraminic acid (MUNANA, Sigma-Aldrich) dissolved in 33 mM MES, pH 6.5 (Emerald Biosystems, Bainbridge Island, WA) was added to the cells. After incubation for 45 min at 30° C., reactions were stopped by addition of 150 μL stop solution (100 mM glycine, pH 10.5, 25% ethanol, all Sigma-Aldrich). Fluorescence was measured with excitation and emission filters of 355 and 460 nm, respectively, on a Victor X3 multi-label plate reader (Perkin Elmer, Waltham, MA). Cytotoxicity of uninfected parallel cultures was determined by addition of 100 μL CellTiter-Glo® reagent (Promega, Madison, WI), and incubation for 10 min at room temperature. Luminescence was measured on a Victor X3 multi-label plate reader.

Experiment [2] shares this test system. Kind of experiment: Influenza A/WSN/33 (H1N1) antiviral assay in MDCK cells (MUNANA neuraminidase readout). The following applies: Influenza A virus, in Canis lupus familiaris, compound 24 h before infection, 250 IU/well, 20 h infection. In kind it is cell-based. How it is done:
as §1
2. Alternatively, Madin-Darby canine kidney epithelial cells (MDCK, ATCC), were plated at a density of 7.5×10^4 cells/ml (7.5×10^3 cells/well) in maintenance media (DMEM with same supplements as above) in 96-well plates. After 24 hours, serially diluted compounds in assay media (MEM supplemented with 0.3FBS, 1% penicillin/streptomycin, 1% HEPES, 1% Glutamine and 1% non-essential amino acids) were added to cells and incubated for an additional 24 hours. Cells were infected with 250 IU/well of Influenza strains A/WSN/33 (H1N1) and incubated for 20 h at 37° C., 5% CO2. The cell culture supernatant was aspirated off and 50 μL 25 μM 2′-(4-Methylumbelliferyl)-a-D-N-acetyl neuraminic acid (MUNANA, Sigma-Aldrich) dissolved in 33 mM MES, pH 6.5 (Emerald Biosystems, Bainbridge Island, WA) was added to the cells. After incubation for 45 min at 30° C., reactions were stopped by addition of 150 μl stop solution (100 mM glycine, pH 10.5, 25% ethanol, all Sigma-Aldrich). Fluorescence was measured with excitation and emission filters of 355 and 460 nm, respectively, on a Victor X3 multi-label plate reader (Perkin Elmer, Waltham, MA). Cytotoxicity of uninfected parallel cultures was determined by addition of 100 μL CellTiter-Glo® reagent (Promega, Madison, WI), and incubation for 10 min at room temperature. Luminescence was measured on a Victor X3 multi-label plate reader.

`CC(C)C(=O)OC[C@H]1O[C@@H](c2nc(C(N)=O)ns2)[C@H](O)[C@@H]1O` [Example 4, ((2R,3S,4R,5R)-5-(3-Carbamoyl-1,2,4-thiadiazol-5-yl)-3,4-dihydroxytetrahydrofuran-2-yl)methyl isobutyrate] displayed an EC50 in experiment [1] of 15.1 µM. For the compound `NC(=O)c1cc([C@@H]2O[C@H](CO)[C@@H](O)[C@H]2O)sn1` [Example 2, 5-((2R,3R,4S,5R)-3,4-Dihydroxy-5-(hydroxymethyl)tetrahydrofuran-2-yl)isothiazole-3-carboxamide], the EC50 in experiment [1] amounted to 54.7 µM; in experiment [2], 0.32 µM. `CC(C)[C@H](N)C(=O)OC[C@H]1O[C@@H](c2nc(C(N)=O)ns2)[C@H](O)[C@@H]1O` [Example 7, ((2R,3S,4R,5R)-5-(3-Carbamoyl-1,2,4-thiadiazol-5-yl)-3,4-dihydroxytetrahydrofuran-2-yl)methyl valinate]: the EC50 in experiment [1] came out at 1.35 µM. On to `NC(=O)c1nsc([C@@H]2O[C@H](CO)[C@@H](O)[C@H]2O)n1` [Example 1, 5-((2R,3R,4S,5R)-3,4-Dihydroxy-5-(hydroxymethyl)tetrahydrofuran-2-yl)-1,2,4-thiadiazole-3-carboxamide], for which the EC50 in experiment [1] is 1.35 µM.

Consider `NC(=O)c1nc([C@@H]2O[C@H](CO)[C@@H](O)[C@H]2O)sc1F` [Example 3, 2-((2R,3R,4S,5R)-3,4-Dihydroxy-5-(hydroxymethyl)tetrahydrofuran-2-yl)-5-fluorothiazole-4-carboxamide], for which the EC50 in experiment [1] is 40.7 µM; in experiment [2] it was 10.1 µM. For `CC(C)OC(=O)OCOP(=O)(OCOC(=O)OC(C)C)OC[C@H]1O[C@@H](c2nc(C(N)=O)ns2)[C@H](O)[C@@H]1O` [Example 6], in that order: 4.66 µM and 1.85 µM.

One may read the EC50 as the midpoint of the concentration-response curve. The low end stands for an effect from little substance, the high end for a need for much substance.
